Assays:
[1] = tested on: aconitine-induced arrhythmias; experiment: Anti-arrhythmic action (aconitine-induced arrhythmias in mice); type: in vivo, male ddY mice; conditions: 100 mg/kg orally 60 min prior to aconitine infusion, percent increase of aconitine needed to induce arrhythmias
Procedure: 2. Anti-arrhythmic action (aconitine-induced arrhythmias in mice)
Male ddY mice weighing about 30 g were anesthetized with pentobarbital sodium given intraperitoneally. Aconitine (1.32 μg/min) was continuously infused into a tail vein 15 min posterior to pentobarbital sodium administration. […] The amount of aconitine needed to induce arrhythmias was calculated from the time taken to the onset of the first premature ventricular systoles. The test compounds (100 mg/kg) were orally given 60 min prior to aconitine infusion. Their relative potencies to quinidine were compared by the percent increase of aconitine needed to induce arrhythmias.

Alpha-receptor = Alpha-receptor blocking action (thoracic aorta, noradrenaline); parameters: species or system male rabbit; conditions: rabbit thoracic aorta helical strip, Krebs-Henseleit, 37° C., compound applied 30 min prior
Procedure: 3. Alpha-receptor blocking action
The thoracic aorta was excised from male rabbit and helically cut. The helical strip was mounted in a tissue bath containing Krebs-Henseleit solution maintained at 37° C. A resting tension of 2.0 g was applied to the tissue. The change in tension, which was induced by cumulative application of noradrenaline, was isometrically measured by the FD-pickup. The tissue bath solution was bubbled with a mixture of 95% O2 -5% CO2. The test compounds were applied 30 min prior to cumulative application of noradrenaline. The degree of alpha-blocking action was expressed as the pA2 value.

SMILES	Anti-arrhythmic action, relative potency (quinidine = 1) [1]	Alpha-blocking action, pA2 value (Alpha-receptor)
COc1ccc(C(C#N)(CCCN(C)CCCOc2ccccc2OC)C(C)C)cc1OC (stereo not drawn) [Example 58]	1.64	–
COc1ccccc1OCCCNCCCC(C#N)(c1cc(OC)c(OC)c(OC)c1)C(C)C (stereo not drawn) [Example 118, Alpha-isopropyl-alpha-[3-[N-[3-(2-methoxyphenoxy)propyl]amino]propyl]-3,4,5-trimethoxyphenylacetonitrile]	2.65	–
COc1ccccc1OCCCN(C)CCCC(C#N)(c1cc(OC)c(OC)c(OC)c1)C(C)C (stereo not drawn) [Example 119]	2.24	–
COc1ccc(CCN(C)CCCC(C#N)(c2ccc(OC)c(OC)c2)C(C)C)cc1OC (stereo not drawn) [Verapamil, reference compound]	–	6.41
CCCCC(C#N)(CCCNCCOc1ccccc1OC)c1cc(OC)c(OC)c(OC)c1 (stereo not drawn) [Example 92]	–	8.57
COc1ccccc1OCCNCCCC(C#N)(CC(C)C)c1cc(OC)c(OC)c(OC)c1 (stereo not drawn) [Example 93, Alpha-isobutyl-alpha-[3-[N-[2-(2-methoxyphenoxy)ethyl]amino]propyl]-3,4,5-trimethoxyphenylacetonitrile]	–	8.67
COc1ccccc1OCCNCCCC(C#N)(c1cc(OC)c(OC)c(OC)c1)C(C)C (stereo not drawn) [Example 84, Alpha-isopropyl-alpha-[3-[N-[2-(2-methoxyphenoxy)ethyl]amino]propyl]-3,4,5-trimethoxyphenylacetonitrile]	2.52	8.42
COc1cc(C(C#N)(CCCNCCCOc2ccc(N)cc2)C(C)C)cc(OC)c1OC (stereo not drawn) [Example 126]	1.03	–
CC(C)N(CCC(C(N)=O)(c1ccccc1)c1ccccn1)C(C)C (stereo not drawn) [disopyramide, reference compound]	0.97	–
COc1cc(C(C#N)(CCCNCCCOc2cccc(N)c2)C(C)C)cc(OC)c1OC (stereo not drawn) [Example 128]	2.01	–
COc1ccc(C(C#N)(CCCNCCCOc2ccccc2OC)C(C)C)cc1OC (stereo not drawn) [Example 57]	1.52	–
COc1ccccc1OCCCNCCC(C#N)(c1cc(OC)c(OC)c(OC)c1)C(C)C.Cl (stereo not drawn) [Example 6, Alpha-isopropyl-alpha-[2-[N-[3-(2-methoxyphenoxy)propyl]-amino]ethyl]-3,4,5-trimethoxyphenylacetonitrile Hydrochloride]	2.02	–
COc1ccc(C(C#N)(CCCNCCOc2ccccc2OC)C(C)C)cc1 (stereo not drawn) [Example 21]	–	8.02
CCCC(C#N)(CCCNCCOc1ccccc1OC)c1cc(OC)c(OC)c(OC)c1 (stereo not drawn) [Example 91]	–	8.46
COc1ccc(CCN(C)CCCC(C#N)(c2cc(OC)c(OC)c(OC)c2)C(C)C)cc1OC (stereo not drawn) [Gallopamil, reference compound]	0.30	6.11
COc1cccc(C(C#N)(CCCN(C)CCCOc2ccccc2OC)C(C)C)c1 (stereo not drawn) [Example 26]	1.60	–
COc1cccc(C(C#N)(CCCN(C)CCOc2ccccc2OC)C(C)C)c1 (stereo not drawn) [Example 20]	1.20	–
COc1ccccc1OCCNCCCC(C)(C#N)c1cc(OC)c(OC)c(OC)c1 (stereo not drawn) [Example 88]	1.34	8.40
COc1cccc(C(C#N)(CCCNCCOc2ccccc2OC)C(C)C)c1 (stereo not drawn) [Example 19]	2.28	–
COc1ccccc1OCCN(C)CCCC(C#N)(c1cc(OC)c(OC)c(OC)c1)C(C)C (stereo not drawn) [Example 85]	3.72	–
CCCc1ccccc1OCCCNCCCC(C#N)(c1cc(OC)c(OC)c(OC)c1)C(C)C (stereo not drawn) [Example 122]	1.21	–
COc1ccc(C(C#N)(CCCNCCOc2ccccc2OC)C(C)C)cc1OC.O=C(O)/C=C\C(=O)O (stereo not drawn) [Example 4, Alpha-isopropyl-alpha-[3-[N-[2-(2-methoxyphenoxy)ethyl]amino]-propyl]-3,4-dimethoxyphenylacetonitrile Maleate]	–	8.25
COc1ccc(C(C#N)(CCCNCCCOc2ccccc2OC)C(C)C)cc1 (stereo not drawn) [Example 27]	1.43	–
COc1cc(C(C#N)(CCCNCCCOc2ccccc2N)C(C)C)cc(OC)c1OC (stereo not drawn) [Example 11, Alpha-isopropyl-alpha-[3-[N-[3-(2-aminophenoxy)propyl]amino]-propyl]-3,4,5-trimethoxyphenylacetonitrile]	1.51	–
COc1cc(C(C#N)(CCCNCCOc2ccccc2)C(C)C)cc(OC)c1OC.Cl (stereo not drawn) [Example 3, Alpha-isopropyl-alpha-[3-(2-phenoxyethylamino)propyl]-3,4,5-trimethoxyphenylacetonitrile Hydrochloride]	2.01	–
COc1cccc(C(C#N)(CCCNCCCOc2ccccc2OC)C(C)C)c1 (stereo not drawn) [Example 25]	2.34	–
CCC(C#N)(CCCNCCOc1ccccc1OC)c1cc(OC)c(OC)c(OC)c1 (stereo not drawn) [Example 90, Alpha-ethyl-alpha-[3-[N-[2-(2-methoxyphenoxy)ethyl]amino]propyl]-3,4,5-trimethoxyphenylacetonitrile]	–	8.79
